Experimental findings from publication PMC9674830, “A glutamine-based single α-helix scaffold to target globular proteins” (Nature Communications, 2022) are described below.

Data set [1] is described as follows: Oligomeric state by SEC-MALS and native MS. To be noted: SEC-MALS (and native MS where stated). The data set is classed as physicochemical. The text has this: To analyze the origin of this behavior and exploit it for peptide design we studied four peptides of identical amino acid composition but with two potential Glni+4 → Leui interactions (pink arrows in Fig. 1a) at different relative positions. The first such interaction is common to all peptides and the second one is shifted 1 (peptide P1-5), 2 (P2-6), 3 (P3-7), or 5 (P5-9) positions towards the C-terminus. After confirming that they were monomeric under our experimental conditions by size exclusion chromatography coupled to multiple angle light scattering (SEC-MALS) (Supplementary Fig. 1d), we used solution-state nuclear magnetic resonance (NMR) spectroscopy to probe their structural properties by exploiting the quantitative dependence of ^13Cα and ^1Hα NMR chemical shifts on residue-specific helical propensity, where larger ^13Cα and lower ^1Hα shifts indicate higher helicity.
We then used CD spectroscopy to study the secondary structure of peptides containing two and three pairs of concatenated Glni+4 → Leui interactions, (P3-7)2 and (P3-7)3, and obtained that they are highly helical and monomeric (Θ222 nm/Θ208 nm < 1) (Fig. 1c, d). […]
These samples were treated with 400 μL of methanol to precipitate the serum proteins and centrifuged for 30 min at 277 K. The supernatant was filtered and analyzed by HPLC to calculate the percentage of intact peptide in the sample. […]
Background: In gel filtration, larger molecules generally elute earlier.

A short description of data set [2]: NMR residue-specific helical propensity (pHel, CheSPI from backbone chemical shifts). The data set is classed as physicochemical. To be noted: 278 K, pH 7.4, 100 μM; 9 contiguous residues for (P3-7)2, 16 for (P3-7)3. Here is the method: Peptide samples for NMR spectroscopy were diluted to a final concentration of 100 μM in a volume of 400 μL in either 20 mM phosphoric acid (pH 2.8) or sodium phosphate (pH 7.4) buffer with added 10% v/v D2O and 10 μM DSS for internal chemical shift referencing, then filled into Shigemi tubes (Shigemi Co. Ltd, Tokyo, Japan). All NMR experiments were recorded at 278 K (unless stated otherwise) on either a Bruker Avance III 600 MHz or a Bruker Avance NEO 800 MHz spectrometer, both equipped with TCI cryoprobes, using TopSpin 4.0.8 for data acquisition (Bruker, Billerica, MA). Unlabeled synthetic peptides P1-5, P2-6, P3-7, P5-9 were characterized by two-dimensional homonuclear (TOCSY and NOESY) and heteronuclear (^1H-^13C HSQC) experiments. The TOCSY and NOESY mixing times were set to 70 and 200 ms, respectively. Water suppression was achieved by excitation sculpting[59] using a 2 ms long Squa100.1000 selective pulse. For peptide backbone resonance assignment, using uniformly ^15N,^13C labeled peptides, the following series of 3D triple resonance BEST-TROSY[60] experiments were acquired with 25% non-uniform sampling (NUS): HNCO, HN(CA)CO, HN(CO)CA, HNCA, and HN(CO)CACB. For some peptides, we resolved assignment ambiguities by also acquiring a 3D (H)N(CA)NH spectrum. Furthermore, 2D ^13C-detected CACO and CON experiments[61] were measured. […]

A value given as a limit tells only on which side of the number the result lay.

On to “KKPGASLAALQALQALQAAQAAKKY [(P3-7)2, Gln-based single α-helix scaffold peptide]”, for which the Oligomeric state entry in data set [1] is “monomeric”. The “Residue-specific helical propensity (pHel) over contiguous residues” value in data set [2] is above 0.9.
